The record followed here is US8945596B2, “Antimicrobial composition” (Conopco, Inc., priority 2008, dated 2015).

What all share (format): cell-based
Assay [1] has as its system Neisseria subflava ATCC 19243. Nature of the assay: Oxoplate oxygen depletion growth assay. The conditions noted are these: no oxygen depletion over 18 hours. As for the experimental part:
(§1) The anti-bacterial activity of the composition of the invention against a commonly found Gram positive oral bacteria viz. Streptococcus mutans ATCC 25175 and a Gram negative oral bacteria Neisseria subflava ATCC 19243) was determined. This was investigated using Oxoplates. Oxoplates monitor oxygen depletion within the reaction system (containing bacteria, broth and actives).
(§2) A Gram positive (Streptococcus mutans ATCC 25175) and a Gram negative (Neisseria subflava ATCC 19243) bacterium were selected for testing the active solutions. Both bacteria were grown on BHIS agar plates for 24 hours at 37° C./15% CO2, they were then suspended in PBS to a McFarland standard of 2 (˜6×10^8 cells).
(§3) Each active was dissolved in 50% ethanol solutions for testing. All solutions were made at 10 times concentrated to allow for dilution in the plate. Reduced concentrations were used for N. subflava due to the greater sensitivity of this organism to biocides,
(§4) The following components were placed into the wells of the Oxoplates, • 170 µl BHI broth • 20 µl test solution • 10 µl bacteria
(§5) The broth was placed into the Oxoplate first, followed by the test solution, and then the bacterium. Water or 50% ethanol controls were also used in each plate. All solutions were tested in replicates of four. The plates were placed into the fluorescent plate reader, incubated at 37° C. and measured every 15 minutes for 18 hours. The sensors on the bottom of the wells were measured at 2 wavelengths, • Indicator (650/[…]) • Reference (590/540 nm).
(§6) The oxygen concentration was calculated using these values and a calibration performed for maximum and minimum oxygen concentration. A graph was then plotted of the oxygen depletion curves over the 18 hour period, which was used to determine the level at which the bacteria start to deplete the oxygen.

The next assay relates to Entereobacter. Nature of the assay: Viable bacteria remaining after 15 seconds of contact with the actives. The following applies: 15 seconds contact, culture added 6.87. As for the experimental part:
(§7) About 10^7 bacterial cells (E. coli ATCC 10536) were taken in a test tube and contacted with various compositions for a period of 15 seconds. Bacteria were taken out after 15 seconds of contact and presence of viable cells was determined by serial dilution and plating on agar plates. The data is presented in log (Viable E. Coli) which is the log10 of the number of viable E. Coli remaining after 15 seconds of contact. Thus if 10^4 remained, log (Viable E. Coli) is 4.
(§8) The combination of thymol (0.2%) and terpineol (0.5%) was tested for its efficacy in inhibiting growth of various other bacteria after they are contacted with this combination for about 15 seconds. Similar experiments were carried out with another well known antibacterial active TCC (trichloro carbanilide). The experiments were carried out similar to those of Examples 1 to 3 and the data on the viable bacteria remaining after contact with the actives for 15 seconds is summarized in Table 3

The test system of the next assay is Klebsiella. The assay is described as above. The following applies: 15 seconds contact, culture added 7.35. The method, then:
as §7, §8

The next assay has as its system Salmonella. The assay is described as above. The following applies: 15 seconds contact, culture added 7.63. As for the experimental part: as §7, §8
The test system of the next assay is Vibrio cholerae. Described as above. The conditions noted are these: 15 seconds contact, culture added 7.58. As for the experimental part:
as §7, §8

The subject of another assay is E. coli ATCC 10536. Nature of the assay: Bacterial kill in test tube after 15 seconds of contact, serial dilution and plating. The conditions noted are these: log10 of viable E. coli remaining after 15 seconds of contact; about 10^7 cells initially; water as carrier. As for the experimental part:
Compositions comprising each individual active and a combination were prepared with water as a carrier (details given in Table 1 below). Terpineol and thymol were obtained from […] aromas, India. […] The data is presented in log (Viable E. Coli) which is the log10 of the number of viable E. […] Eucalyptol and linalool were obtained from Fluka. […] The data in log (Viable E.

Assay [2] concerns Streptococcus mutans ATCC 25175. Nature of the assay: Oxoplate oxygen depletion growth assay. The following applies: no oxygen depletion over 18 hours. As for the experimental part:
as §1, §2, §3, §4, §5, §6

Regarding `Cc1ccc(C(C)C)c(O)c1` [Example 28, Thymol], in assay [1] (thymol concentration), the “Concentration of active (wt %) at no growth” value was “Thymol (0.02%) wt %”.

In the case of `O=C(Nc1ccc(Cl)cc1)Nc1ccc(Cl)c(Cl)c1` [0.2% TCC, trichloro carbanilide], the viable bacteria remaining was 6.87 Log (CFU/ml) in the assay on Entereobacter, 7.28 Log (CFU/ml) in the assay on Klebsiella, 7.33 Log (CFU/ml) with Salmonella and 7.20 Log (CFU/ml) with Vibrio cholerae.

On to Terpineol [Example 2], for which the “Log (Viable E. coli)” value in the assay on E. coli ATCC 10536 amounted to 6.3.

Take `Cc1ccc(C(C)C)c(O)c1` [Example 25, Thymol]: the “Concentration of active (wt %) at no growth” value in assay [2] (thymol concentration) is reported as “Thymol (0.08%) wt %”.

On to `Cc1ccc(C(C)C)c(O)c1` [Example 1, Thymol], for which the “Log (Viable E. coli)” value in the assay with E. coli ATCC 10536 is reported as 3.1.

Consider Terpineol [Example 27], for which the “Concentration of active (wt %) at no growth” value in assay [1] (terpineol concentration) is “Terpineol (0.08%) wt %”.

With Terpineol [Example 24], in assay [2] (terpineol concentration), the “Concentration of active (wt %) at no growth” value is “Terpineol (0.4%) wt %”.
